Results reported in PubChem BioAssay AID179 (DTP/NCI, 2004).
Several values for one entry are separate records, joined by “and”; a condition that tells them apart may be missing. Equal values may be shown once. Activity calls are given as the source filed them.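 Rule for the calls: active = compounds giving half or more protection of infected cells from virus-caused growth loss, again on retest; inactive = the rest.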 Where a SMILES comes first, the peptide text is derived from it. Bridges are numbered along the chain shown (N, C = ends). [ ]: non-standard residue; d: D form. The star is where a group is joined. Cbz = O=C(OCc1ccccc1)*; Dab = NCC[CH](N)C(=O)O; Bn = c1ccc(C*)cc1

Tested on: CEM cells HIV-1 protection, formazan growth assay
Assay: NCI AIDS Antiviral Assay
Conditions: for IC50: measured here: growth of uninfected CEM cells
In short: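 Protection of CEM cells against HIV-1 was scored from cell growth (soluble formazan) across five concentrations, with parallel uninfected cells. Lack of protection may reflect toxicity.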

SMILES | EC50 [µM] | IC50 | outcome
CCOC(=O)/C(=C\c1ccc(OC)cc1)C(C)=O | > 275 | 117 µM | 
CC(C)CC1NC(=O)C(Cc2ccccc2)NC(=O)C(Cc2ccccc2)NC(=O)C(NC(=O)C(Cc2ccc(OCc3ccccc3)cc2)NC(=O)OCc2ccccc2)CCNC1=O (stereo not given) (Cbz-Y(Bn)[Dab]FFL; lactam 2-C; configuration not given here) | > 100 | > 100 µM | 
CCOC(=O)c1[nH]c(Br)c(-c2ccc(OC)c(OC)c2)c1Br | > 200 | 0.0631 µM | 
O=c1cc(NNc2cccc3ccccc23)[nH]c(=O)[nH]1 | > 200 | 4.9 µM | 
O=C(Nc1nc(C23CC4CC(CC(C4)C2)C3)cs1)c1c(O)c2ccccc2[nH]c1=O | > 200 | > 200 µM | 
OC1CSCCCSCCSCCCSC1 | > 17.4 | > 17.4 µM | 
N#CC12C(=O)N3C(=NC(c4ccco4)NC3c3ccco3)C1(C#N)C(c1ccco1)NC1=C2CCCC1 (stereo not given) | > 200 | > 200 µM | 
O=C1Nc2ccccc2C1(O)C/C(=N/O)c1ccc2ccccc2c1 (stereo not given) | > 107 | > 107 µM | 
CCOP(=O)(OCC)/C(C#N)=C/c1cccc(C#N)c1 | > 617 | 102 µM | 
Cc1nc2sccn2c1C(=O)NNC(N)=S | > 372 | > 372 µM | 
CCOC(=O)CC[C@H](NC(=O)c1ccc(CNc2nc3cc(C(F)(F)F)ccc3nc2C(=O)OCC)cc1)C(=O)OCC | > 100 | > 100 µM | 
CCN(CC)CCNC(=O)c1nn(-c2ccc(Cl)cc2)c2c1CCc1cc(OC)ccc1-2 | > 91.2 | 5.01 µM | 
COC1(c2cccs2)OC(=O)c2c([N+](=O)[O-])cccc21 (stereo not given) |  |  | inactive
COc1cc(CC(C)=O)cc(OC)c1 | > 200 | 95.5 µM | 
c1ccc(N2N=NC3C4CC(C5CCCC54)C32)cc1 (stereo not given) | > 200 | > 100 µM | 
c1c[nH]c(C23C4C5C6C4C2C6C53)n1 (stereo not given) | > 200 | > 200 µM | 
O=C(O)c1cc2c3c(c1)[C@H]1C=CC[C@H]1CN3CC1CC=CC21 (stereo not given in full) |  |  | inactive
CC(=O)N1c2cc(N=NN(C)C)ccc2NC(=O)CC1C (stereo not given) | > 200 | > 200 µM | 
N#CC1=C(S)N(C2OC(CO)C(O)C(O)C2O)C(c2ccccc2)=CC1c1ccccc1 (stereo not given) | > 200 | 51.3 µM | 
COC1=C(N)C(=O)c2ncccc2C1=O |  |  | inactive
Cc1ccc(S(=O)(=O)NC(=O)n2ccnc2C)cc1 | > 891 |  | 
O=C(O)C[S][Bi]([S]CC(=O)O)[S]CC(=O)O |  |  | inactive
O=C(c1ccccc1)C1C(c2ccccc2)N1S(=O)(=O)c1ccccc1 (stereo not given) | > 20 | 3.02 µM | 

SMILES | EC50 [µM] | IC50 | outcome
N/C=N/S(=O)(=O)c1ccc(NC(=O)COC(=O)c2cccc3c(=O)c4ccccc4[nH]c23)cc1 |  |  | inactive
O=C(O)Cc1ccc(N2N=C(c3ccccc3)CC2=O)cc1 | > 200 | > 200 µM | 
O=C1c2ccccc2C(=O)c2c1nnn2-c1ccccc1 | > 200 | 3.55 µM | 
O=C1C=C2CCN(C(=O)c3ccccc3)CC2O1 (stereo not given) | > 200 | > 200 µM | 
C=CCC(=S)NCCc1c[nH]c2ccccc12 | > 200 | 120 µM | 
Cc1nc(N)nc(N)c1N1CCN(c2ccc(C(=O)NC(CCC(=O)O)C(=O)O)cc2)CC1 (stereo not given) | > 200 | 0.0631 µM | 
CCN(CC)CC(C(=O)Nc1c(C)cccc1C)/C(C)=N\NC(=O)C[N+](C)(C)C (stereo not given) | > 40.7 | > 40.7 µM | 
O=c1[nH]c2ccccc2nc1/C=C\NC(=S)Nc1cc(Cl)ccc1Cl | > 200 | 112 µM | 
Cc1cccc(NC(=S)NNC(=O)c2cc(-c3ccccc3)nc3ccccc23)c1 | > 200 | 24 µM | 
Nc1n(CC(=O)c2ccccc2)nc2sc(-c3ccccc3)n[n+]12 | > 200 | 10.2 µM | 
O=C1C(Cl)=C(N2CCN(C3=C(Cl)C(=O)c4ccccc4C3=O)CC2)C(=O)c2ccccc21 | > 7.76 | 1.32 µM | 
CCCc1cc(=O)oc2c3c(c4c(c12)OC(C)(C)C(O)C4=O)O[C@@H](C)[C@H](C)[C@@H]3O (stereo not given in full) | > 200 | 85.1 µM | 
CCc1nc(N)c2nc(-c3ccc(C#N)cc3)oc2n1 | > 100 | > 100 µM | 
O=C1CC(C[C@H](O)C2CCCCC2O)CC(=O)N1Cc1ccccc1 (stereo not given in full) | > 200 | > 200 µM | 
CC1NCc2c1[nH]cnc2=S (stereo not given) | > 257 | > 257 µM | 
O/N=C1/CCCCC1NO (stereo not given) | > 200 | 117 µM | 
O=P(Nc1ccccc1)(Oc1ccccc1)N(CCCl)CCCl (stereo not given) | > 50.1 | 22.4 µM | 
CC(C)=CC(Cc1ccccc1)S(=O)(=O)c1nc2ccccc2s1 (stereo not given) | > 200 | 10 µM | 
O=C1C(=O)c2ccccc2C(O)=C1C(/C=C/c1ccccc1)C1=C(O)c2ccccc2C(=O)C1=O | > 200 | 9.55 µM | 
CCCS(=O)OC1C(C2COC(C)(C)O2)OC2OC(C)(C)OC21 (stereo not given) | > 200 | 95.5 µM | 
CCOc1ccccc1N=C(NC(=O)CC)SC | > 18.2 | > 18.2 µM | 
O=C(Nc1ccc(Cl)cc1)C(=O)Nc1ccc(Cl)cc1 | > 200 | > 200 µM | 
CC1=NN(C(=O)Cc2ccccc2)C(=O)/C1=C\c1ccc(O)cc1 | > 16.2 | > 16.2 µM | 

SMILES | EC50 [µM] | IC50 | outcome
O=c1[nH]c2cc(Cl)c(Br)cc2o1 | 112 | 204 µM | 
COc1cccc(SSc2cccc(OC)c2OC)c1OC | > 200 | 16.6 µM | 
O=C1OCCC1(Br)C(Br)c1ccccc1 (stereo not given) | > 200 | 6.03 µM | 
NC(=O)N/N=C1/CC2CCCCC2c2ccccc21 (stereo not given) | > 200 | 34.7 µM | 
CSc1nc2c(=O)oc(-c3ccc([N+](=O)[O-])cc3)nc2s1 | > 151 | 5.37 µM | 
c1cc(-c2nc3sc(-c4ccncc4)nc3s2)ccn1 | > 24.5 | > 24.5 µM | 
CN(/N=C/c1ccc(Cl)cc1)C1=NCCCCN1 | > 200 | 87.1 µM | 
NC(N)=NCCCC(NCc1c2ccccc2[n+]([O-])c2ccccc12)C(=O)O (stereo not given) |  |  | inactive
CN(C)c1nc(=NCc2ccncc2)ss1 | > 200 | 10.7 µM | 
CC(C)C(Nc1c2ccccc2nc2ccccc12)C(=O)O (stereo not given) |  |  | inactive
O=C1c2scc(-c3ccc(Cl)cc3)c2-n2cccc21 | > 200 | > 200 µM | 
CSc1nc(NC2CCCC2)c2cc[nH]c2n1 | > 200 | 43.7 µM | 
CCOC(=O)c1sc(SC)nc1NC(=O)c1ccc(Cl)cc1 | > 200 | > 200 µM | 
O=C1Cc2c([nH]c3ccccc23)C2(CC3CCCCN13)OCCO2 (stereo not given) | > 200 | 182 µM | 
O=C(O)c1ccccc1/C=C1\Cc2ccc3c(c2C1=O)CCCC3 | > 200 | 41.7 µM | 
CC1=C(O)C(=O)C(c2c(C)cc(C)c(Br)c2C)=C(O)C1=O | > 115 | 15.5 µM | 
CC(C)Oc1nc(N2CCNCC2)nc2c1CCCC2 |  |  | inactive
CCCCC(C(=O)CCC(=O)Nc1ccc(Cl)c(Cl)c1)C(=O)C(C)C (stereo not given) | > 324 | 275 µM | 
O=c1c2cc([N+](=O)[O-])ccc2[nH]n1Cc1ccccc1Cl | > 200 | 41.7 µM | 
CCCCOC(=O)C(O)Cc1ccoc1 (stereo not given) | > 200 | > 200 µM | 
C=C(C)Cn1c(=O)c2c(ncn2C)n(C)c1=O | > 200 | > 200 µM | 
CCOC(=O)Nc1nc2ccn(C)c2s1 | > 200 | > 200 µM | 
Cn1c(=O)cc(NNc2ccc(Br)cc2)[nH]c1=O | > 200 | 6.17 µM | 

SMILES | EC50 [µM] | IC50 | outcome
NC(=O)CCNC(=O)c1ccccc1SC(=O)NCCBr | 1.38 | 10 µM | 
O=C(O)CCC1NC(/C(=C/c2ccccc2O)NC(=O)c2ccccc2)OC1=O (stereo not given) | > 151 | > 151 µM | 
C=CCOc1ccccc1C1(O)c2ccccc2C2=NCCCN21 (stereo not given) | > 200 | 40.7 µM | 
CSC1SCC2C(=O)N(C)C3(CC3C)C(=O)OCC(NC(=O)c3nc4ccccc4cc3O)C(=O)NC(C)C(=O)N(C)C1C(=O)N(C)C1(CC1C)C(=O)OCC(NC(=O)c1nc3ccccc3cc1O)C(=O)NC(C)C(=O)N2C (stereo not given) | > 8.32 | 0.00263 µM | 
CCOC(=O)C1C(C(=O)OCC)N2c3ccccc3-c3cccnc3[C@@H]2[C@H]1C(=O)OCC (stereo not given in full) | > 100 | 95.5 µM | 
O=C1CC(C(OCc2ccccc2)C(OCc2ccccc2)C(COCc2ccccc2)OCc2ccccc2)CC(=O)N1 (stereo not given) | > 200 | > 200 µM | 
COc1cc2c(cc1OC)C1Cc3cc(OC)c(OC)cc3C(C2)N1C | > 708 | 52.5 µM and 64.6 µM | 
O=C(NC(=O)c1c(F)cccc1F)Nc1ccc(Br)cn1 | > 200 | > 200 µM | 
CCOC(=O)CCC(NC(=O)c1ccc(Oc2nc3ccccc3nc2-c2ccccc2)cc1)C(=O)OCC (stereo not given) | > 200 | > 200 µM | 
OCc1cn(C(c2ccccc2)(c2ccccc2)c2ccccc2)cn1 | 195 | > 200 µM | 
Cc1cc(O)c2c(c1)C(C1c3cccc(O)c3C(=O)c3c(O)cc(C)cc31)c1cccc(O)c1C2=O (stereo not given) | > 2 | 0.0912 µM | 
Cc1ccc(NC(=O)CCc2nnc(N)o2)cc1 | > 380 | > 380 µM | 
Cc1nc(C(N)=S)sc1C(=O)CC(=O)C(=O)Nc1ccccc1[N+](=O)[O-] |  |  | inactive
O=c1[nH]c(N/N=C\C(O)C(O)C(O)C(O)CO)nc2ccccc12 (stereo not given) | > 200 | > 200 µM | 
COc1cc2c(cc1OC)-c1cc3ccc(OC)c(OC)c3c[n+]1CC2 | > 324 | 145 µM | 
[Br][Ni][Br].[NH-]CC[NH-].[NH-]CC[NH-] | > 200 | 67.6 µM | 
COC(=O)N/N=C(\C)C(CN1CCCCC1)C(C1=C(O)c2ccccc2OC1)c1ccccc1 (stereo not given) | > 72.4 | 42.7 µM | 
O=c1[nH]c(=O)c2c([nH]1)[nH]c1ccc(Br)cc12 | > 200 | 34.7 µM | 
OC[C@@H](O)[C@H](O)[C@H](O)[C@@H](O)C1SCCCS1 | > 200 | > 200 µM | 
Cc1nc(N)[nH]c(=O)c1CCCNc1ccc(C(=O)NC(CCC(=O)O)C(=O)O)cc1 (stereo not given) | > 200 | 2.75 µM | 
CC1C=CC(C(=O)O)C2C(=O)OC(=O)C12 (stereo not given) | > 1200 | > 1200 µM | 
